{
  "source": "patent US9487749B2",
  "about": "(priority 2009, dated 2016)",
  "system": "Chlorella sorokiniana",
  "experiment": "Algal growth with MSM by percent transmittance",
  "format": "cell-based",
  "procedure": "Two species of Chlorella were examined for growth—Chlorella sorokiniana a freshwater species and Chlorella minutissima a marine species. […] Growth was measured on day 0, 1, 2, 3, 4, 5, 6, 7, 8, 9 and 10. […] The following media were purchased from UTEX Culture Collection of Algae: Enriched Salt Water Medium and Volvox Dextrose Medium.\nThe algae were grown for 48 hours in the appropriate medium. The initial suspension was enumerated for each alga and is referred to as the starting inoculums. Chlorella sorokiniana was at 381 million cells per milliliter and Chlorella minutissima was at 19 million cells per milliliter. One milliliter of the algal solution was placed into 9 mLs of medium and mixed by vortexing. […] The tube of algae and MSM were incubated at room temperature with exposure to sunlight. […] Each dilution of MSM for each organism was set up in and analyzed in triplicate for each time interval measured. The samples were measured by percent transmittance on a UV/VIS spectrophotometer at wavelength 750 nm. The medium stock was tested for percent transmittance background levels at every time interval were measured. The lower percent transmittance indicated a higher growth factor.",
  "data": [
    {"smiles": "CS(C)(=O)=O", "note": "[MSM, Methylsulfonylmethane]", "values": [
      {"measurement": "percent transmittance", "setting": "MSM 0.5, day 0, 750 nm", "result": 47.3, "unit": "%"},
      {"measurement": "percent transmittance", "setting": "MSM 0.5, day 1, 750 nm", "result": 41.8, "unit": "%"},
      {"measurement": "percent transmittance", "setting": "MSM 0.5, day 2, 750 nm", "result": 29.3, "unit": "%"},
      {"measurement": "percent transmittance", "setting": "MSM 0.5, day 3, 750 nm", "result": 29.6, "unit": "%"},
      {"measurement": "percent transmittance", "setting": "MSM 0.5, day 4, 750 nm", "result": 19.0, "unit": "%"},
      {"measurement": "percent transmittance", "setting": "MSM 0.5, day 5, 750 nm", "result": 12.4, "unit": "%"},
      {"measurement": "percent transmittance", "setting": "MSM 0.5, day 6, 750 nm", "result": 12.5, "unit": "%"},
      {"measurement": "percent transmittance", "setting": "MSM 0.5, day 7, 750 nm", "result": 11.9, "unit": "%"},
      {"measurement": "percent transmittance", "setting": "MSM 0.5, day 8, 750 nm", "result": 12.2, "unit": "%"},
      {"measurement": "percent transmittance", "setting": "MSM 0.5, day 9, 750 nm", "result": 7.5, "unit": "%"},
      {"measurement": "percent transmittance", "setting": "MSM 0.5, day 10, 750 nm", "result": 6.4, "unit": "%"},
      {"measurement": "percent transmittance", "setting": "MSM 1, day 0, 750 nm", "result": 48.7, "unit": "%"},
      {"measurement": "percent transmittance", "setting": "MSM 1, day 1, 750 nm", "result": 42.5, "unit": "%"},
      {"measurement": "percent transmittance", "setting": "MSM 1, day 2, 750 nm", "result": 37.5, "unit": "%"},
      {"measurement": "percent transmittance", "setting": "MSM 1, day 3, 750 nm", "result": 37.5, "unit": "%"},
      {"measurement": "percent transmittance", "setting": "MSM 1, day 4, 750 nm", "result": 17.3, "unit": "%"},
      {"measurement": "percent transmittance", "setting": "MSM 1, day 5, 750 nm", "result": 13.5, "unit": "%"},
      {"measurement": "percent transmittance", "setting": "MSM 1, day 6, 750 nm", "result": 13.0, "unit": "%"},
      {"measurement": "percent transmittance", "setting": "MSM 1, day 7, 750 nm", "result": 12.5, "unit": "%"},
      {"measurement": "percent transmittance", "setting": "MSM 1, day 8, 750 nm", "result": 12.4, "unit": "%"},
      {"measurement": "percent transmittance", "setting": "MSM 1, day 9, 750 nm", "result": 7.8, "unit": "%"},
      {"measurement": "percent transmittance", "setting": "MSM 1, day 10, 750 nm", "result": 6.6, "unit": "%"},
      {"measurement": "percent transmittance", "setting": "MSM 2.5, day 0, 750 nm", "result": 40.6, "unit": "%"},
      {"measurement": "percent transmittance", "setting": "MSM 2.5, day 1, 750 nm", "result": 43.1, "unit": "%"},
      {"measurement": "percent transmittance", "setting": "MSM 2.5, day 2, 750 nm", "result": 44.9, "unit": "%"},
      {"measurement": "percent transmittance", "setting": "MSM 2.5, day 3, 750 nm", "result": 43.8, "unit": "%"},
      {"measurement": "percent transmittance", "setting": "MSM 2.5, day 4, 750 nm", "result": 26.1, "unit": "%"},
      {"measurement": "percent transmittance", "setting": "MSM 2.5, day 5, 750 nm", "result": 10.3, "unit": "%"},
      {"measurement": "percent transmittance", "setting": "MSM 2.5, day 6, 750 nm", "result": 10.9, "unit": "%"},
      {"measurement": "percent transmittance", "setting": "MSM 2.5, day 7, 750 nm", "result": 11.0, "unit": "%"},
      {"measurement": "percent transmittance", "setting": "MSM 2.5, day 8, 750 nm", "result": 11.2, "unit": "%"},
      {"measurement": "percent transmittance", "setting": "MSM 2.5, day 9, 750 nm", "result": 8.4, "unit": "%"},
      {"measurement": "percent transmittance", "setting": "MSM 2.5, day 10, 750 nm", "result": 6.0, "unit": "%"},
      {"measurement": "percent transmittance", "setting": "MSM 5, day 0, 750 nm", "result": 35.6, "unit": "%"},
      {"measurement": "percent transmittance", "setting": "MSM 5, day 1, 750 nm", "result": 31.2, "unit": "%"},
      {"measurement": "percent transmittance", "setting": "MSM 5, day 2, 750 nm", "result": 27.4, "unit": "%"},
      {"measurement": "percent transmittance", "setting": "MSM 5, day 3, 750 nm", "result": 21.4, "unit": "%"},
      {"measurement": "percent transmittance", "setting": "MSM 5, day 4, 750 nm", "result": 18.2, "unit": "%"},
      {"measurement": "percent transmittance", "setting": "MSM 5, day 5, 750 nm", "result": 15.7, "unit": "%"},
      {"measurement": "percent transmittance", "setting": "MSM 5, day 6, 750 nm", "result": 15.9, "unit": "%"},
      {"measurement": "percent transmittance", "setting": "MSM 5, day 7, 750 nm", "result": 16.3, "unit": "%"},
      {"measurement": "percent transmittance", "setting": "MSM 5, day 8, 750 nm", "result": 17.0, "unit": "%"},
      {"measurement": "percent transmittance", "setting": "MSM 5, day 9, 750 nm", "result": 13.7, "unit": "%"},
      {"measurement": "percent transmittance", "setting": "MSM 5, day 10, 750 nm", "result": 12.8, "unit": "%"},
      {"measurement": "percent transmittance", "setting": "MSM 10, day 0, 750 nm", "result": 31.2, "unit": "%"},
      {"measurement": "percent transmittance", "setting": "MSM 10, day 1, 750 nm", "result": 31.3, "unit": "%"},
      {"measurement": "percent transmittance", "setting": "MSM 10, day 2, 750 nm", "result": 29.7, "unit": "%"},
      {"measurement": "percent transmittance", "setting": "MSM 10, day 3, 750 nm", "result": 28.4, "unit": "%"},
      {"measurement": "percent transmittance", "setting": "MSM 10, day 4, 750 nm", "result": 29.0, "unit": "%"},
      {"measurement": "percent transmittance", "setting": "MSM 10, day 5, 750 nm", "result": 28.7, "unit": "%"},
      {"measurement": "percent transmittance", "setting": "MSM 10, day 6, 750 nm", "result": 27.1, "unit": "%"},
      {"measurement": "percent transmittance", "setting": "MSM 10, day 7, 750 nm", "result": 27.6, "unit": "%"},
      {"measurement": "percent transmittance", "setting": "MSM 10, day 8, 750 nm", "result": 27.1, "unit": "%"},
      {"measurement": "percent transmittance", "setting": "MSM 10, day 9, 750 nm", "result": 76.4, "unit": "%"},
      {"measurement": "percent transmittance", "setting": "MSM 10, day 10, 750 nm", "result": 93.8, "unit": "%"},
      {"measurement": "percent transmittance", "setting": "MSM 20, day 0, 750 nm", "result": 19.3, "unit": "%"},
      {"measurement": "percent transmittance", "setting": "MSM 20, day 1, 750 nm", "result": 21.9, "unit": "%"},
      {"measurement": "percent transmittance", "setting": "MSM 20, day 2, 750 nm", "result": 24.1, "unit": "%"},
      {"measurement": "percent transmittance", "setting": "MSM 20, day 3, 750 nm", "result": 28.1, "unit": "%"},
      {"measurement": "percent transmittance", "setting": "MSM 20, day 4, 750 nm", "result": 31.4, "unit": "%"},
      {"measurement": "percent transmittance", "setting": "MSM 20, day 5, 750 nm", "result": 33.6, "unit": "%"},
      {"measurement": "percent transmittance", "setting": "MSM 20, day 6, 750 nm", "result": 36.8, "unit": "%"},
      {"measurement": "percent transmittance", "setting": "MSM 20, day 7, 750 nm", "result": 40.6, "unit": "%"},
      {"measurement": "percent transmittance", "setting": "MSM 20, day 8, 750 nm", "result": 40.8, "unit": "%"},
      {"measurement": "percent transmittance", "setting": "MSM 20, day 9, 750 nm", "result": 84.8, "unit": "%"},
      {"measurement": "percent transmittance", "setting": "MSM 20, day 10, 750 nm", "result": 96.7, "unit": "%"}
    ]}
  ]
}
